How the values were obtained:
[1] = degradation time in vivo of ω-oxidation-blocked fatty acid analogue; details: triple bond at methyl end blocking ω-oxidation
Source text: ω-oxidation is believed to be the main pathway for degradation of the fatty acid analogues as described with a block in the X position. Experiments were thus performed where R′ was changed to block w-oxidation, by introducing a triple bond at the methyl end of the fatty acid analogue. […] This is important for the use of the fatty acid analogues in pharmaceutical preparation, as it may potentiate the effects of the β-oxidizable fatty acid analogues by further slowing down their breakdown.

femoral BMD = femoral BMD in rats by DXA; assay type: in vivo, rat; details: female Fischer rats, 50 mg/kg body weight, intragastric gavage, 4 months
Procedure: Fifty female Fischer rats were divided into 5 groups and were given methocel (control group), Wyeth 14,643, fenofibrate, tetradecylthioacetic acid (TTA) and pioglitazone (50 mg/kg body weight) by intragastric gavage for 4 months. Body weight was registered throughout the study. BMD was measured by double x-ray absorptiometry (DXA). Histomorhometry of femur was performed, and mechanical strength in the femoral shaft and collum femoris was measured.

human monocytes = experiment: differentiation of human monocytes into osteoclasts; assay type: cell-based
[2] = system: preosteoclast cell line RAW264.7; experiment: proliferation of preosteoclast cell line RAW264.7; assay type: cell-based
[3] = system: preosteoblast cell line MC3T3-E1; experiment: release of OPG, RANKL and IL6 from preosteoblast cell line MC3T3-E1; assay type: cell-based; details: preosteoblasts (MC3T3-E1)
Source text: The effect of the PPAR agonists on release of osteoprotegerin (OPG), RANKL and IL6 from the preosteoblast cell line MC3T3-E1 was investigated. […] Wyeth 14643, fenofibrate and TTA were also shown to stimulate OPG release and inhibit IL6 release from preosteoblasts, while no effects on RANKL could be detected.

[4] = system: mitochondrial β-oxidation in the liver; experiment: activity of mitochondrial β-oxidation in the liver; details: fatty acid analogues with sulphur in 3, 5, 7 position vs palmitic acid control
Source text: Although all fatty acid anagoges with an odd positioning of the β-oxidation blocker X away from the carboxylic end block β-oxidation, the extent of their biological effect may be variable. This is due to the difference in biological degradation time of the various compounds. The inventors have done experiments to show the effect of moving X further from the carboxylic fatty acid end. In these experiments the activity (in nmol/min/mg/protein) of mitochondrial β-oxidation in the liver of fatty acid analogues was measured with sulphur in the 3, 5 and 7 positions relative to the carboxyl end. The activities were 0.81 for sulphur in the 3rd position, 0.61 for sulphur in the 5th position, 0.58 for sulphur in the 7th position, and 0.47 for palmitic acid, the non β-oxidation blocking control. […] However, as the decline is great for going from the 3rd to 5th position, but small going from the 5th to 7th position, it is reasonable to assume that this decline will continue to be less as one moves out the chain, and thus that it will be very far out indeed before no effect (compared to the control) is seen at all.

Structure (SMILES): CC#CCCCCCCCCCCCSCC [3-thia-15-heptadecyn]
- degradation time in vivo [1]: substantially increased degradation time in vivo

Structure (SMILES): Cc1cccc(Nc2cc(Cl)nc(SCC(=O)O)n2)c1C [Wyeth 14,643]
- change in femoral BMD versus control rats (femoral BMD): 7%
- differentiation of human monocytes into osteoclasts (human monocytes): inhibit the differentiation of human monocytes into osteoclasts in a dose-dependent manner
- proliferation of RAW264.7 [2]: inhibited the proliferation
- IL6 release [3]: stimulated
- OPG release [3]: stimulated
- RANKL release [3]: no effects
- IL6 release ([3]; listed as Wyeth 14643): inhibit
- OPG release ([3]; listed as Wyeth 14643): stimulate

Structure (SMILES): CC(C)OC(=O)C(C)(C)Oc1ccc(C(=O)c2ccc(Cl)cc2)cc1 [fenofibrate]
- change in femoral BMD versus control rats (femoral BMD): 5.7%

Structure (SMILES): CCCCCCCCCCCCCCCC(=O)O [palmitic acid]
- activity of mitochondrial β-oxidation in the liver [4]: 0.47 nmol/min/mg/protein

Structure (SMILES): CCc1ccc(CCOc2ccc(CC3SC(=O)NC3=O)cc2)nc1 (stereo not drawn) [pioglitazone]
- change in femoral BMD versus control rats (femoral BMD): −3%

— US20100029973A1, “Fatty acid analogues for equilibrating bone mineral density” (priority 2005, published 2010)
